Results published in PMC7914304 (Bioorganic & medicinal chemistry, 2020).
Read-outs that look alike come from different tables or passages of the source.

Legend:
logP by HPLC method = type: physicochemical
[1] = mice, oral, cited from earlier work

Row | SMILES | logP (logP by HPLC method) | AUC ([1]; 0.3 mg/kg) | Cmax ([1]; 0.3 mg/kg) | T1/2 ([1]; 0.3 mg/kg) | Tmax ([1]; 0.3 mg/kg) | AUC ([1]; 0.5 mg/kg) | Cmax ([1]; 0.5 mg/kg) | T1/2 ([1]; 0.5 mg/kg) | Tmax ([1]; 0.5 mg/kg)
1 | CC[C@H](C)C(=O)N1CCC(NC(=O)Nc2ccc(OC(F)(F)F)cc2)CC1 [compound 3] | 3.97 | 2.53 µM·h | 195 nM | 7.7 h | 4 h | – | – | – | –
2 | CC(=O)N1CCC(NC(=O)NC23CC4CC(CC(C4)C2)C3)CC1 [inhibitor 1] | – | – | – | – | – | 0.183 µM·h | 30 nM | 3 h | 1 h
